# According to patent publication US20110028546A1, “NOVEL ANTIMICROBIAL FORMULATIONS INCORPORATING ALKYL ESTERS OF FATTY ACIDS AND NANOEMULSIONS THEREOF” (priority 2006, published 2011):
# Columns and labels:
# Assay in all cases: In vitro antimicrobial efficacy using time kill procedure (ASTM E 2315-03)
# Assay type in all cases: cell-based
# Conditions in all cases: 1.0% concentration
# [1] = test system: E. Coli—ATCC No. 8739
# Protocol: (§1) The following target organisms were included in the tests: E. Coli—ATCC No. 8739; Staphylococcus Aureus—ATCC No. 6538 and Candida Albicans—ATCC No. 10231. The initial inoculum counts for all the organisms were between 10^6 and 10^8 CFUs/ml.
# (§2) The testing procedure was according to ASTM E 2315-03 standards and protocols. The exposure times were 2 minutes and 10 minutes. Each test concentration was tested in duplicate and each sample was plated in duplicate.
# (§3) The log reduction expresses the efficacy of the antimicrobial formulation against the target organism. The final mean number of Colony Forming Units (CFUs) per ml of test solution at a given exposure time log 10 is calculated as follows:
# (§4) Mean No. of CFUs/ml ═Na=C/(n×D×V)
# (§5) • C=Total number of colonies counted on all plates • V=Sample volume used to prepare the pour plate (1 ml) • D=Dilution factor (0.01) • n=Number of plates taken into account • a=exposure time
# (§6) The mean log reduction is calculated using the equation: […]
# (§7) Mean log reduction log 10(NI×0.01)−log 10 (Na)
# (§8) Where NI is the initial organism count
# [2] = test system: Staphylococcus Aureus—ATCC No. 6538
# Protocol: as §1, §2, §3, §4, §5, §6, §7, §8
# [3] = test system: Candida Albicans—ATCC No. 10231
# Protocol: as §1, §2, §3, §4, §5, §6, §7, §8
structure (smiles),measurement,setting,value
"CC(O)C(=O)O (stereo not drawn) [LA 88, Lactic Acid 88%]","2 minute log reduction, E. Coli",[1]; 2 minutes exposure,2.36
same,"10 minute log reduction, E. Coli",[1]; 10 minutes exposure,2.41
same,"2 minute log reduction, S. Aureus",[2]; 2 minutes exposure,<2.0
same,"10 minute log reduction, S. Aureus",[2]; 10 minutes exposure,<2.0
same,"2 minute log reduction, Candida Albicans",[3]; 2 minutes exposure,2.69
same,"10 minute log reduction, Candida Albicans",[3]; 10 minutes exposure,2.79
